Test results reported in patent US4965066A, “Intranasal administration of 3,3-disubstituted indolines” (E. I. Du Pont de Nemours and Company, priority 1989, dated 1990).

Assay: in vivo
Conditions: rat
Experimental: Male Lewis rats weighing approximately 300 g were used. […] This dose was administered by gavage. The nasal dose of (1') was administered to rats after surgical isolation of the nasal cavity. The trachea was cannulated to allow free breathing, and a closed tube was inserted anteriorly through the esophagus to block the posterior part of the nasal cavity. The incisive ducts were closed with an adhesive to prevent drainage into the mouth. The dose was administered through the nares with a microliter syringe via polyethylene tubing. […] Serial blood samples (~0.5 ml) were collected into heparinized test tubes after cutting the tip of the tail. […] Aliquots of the acid were injected onto the HPLC. […] Du Pont) attached to a guard column packed with cyano packing. A liter of mobile phase contained […] of 0.1 M acetate buffer at pH 3.5, 480 ml acetontrile, 5 ml tetrahydrofuran, and 0.75 g sodium heptanesulfonate. […] Detection was by ultraviolet (uv) absorbance at 252 nm. The detection limit was 0.12 μg/ml plasma. […] Systemic bioavailability after oral and nasal doses was calculated for each rat as the ratio of AUC^oral or ^nasal /AUC^iv, using the average AUC^iv and correcting for the differences in dose. Values are expressed as percentage (%) of dose.

O=C1N(c2ccccc2)c2ccccc2C1(Cc1ccncc1)Cc1ccncc1 [1']
Tmax (1 mg/kg): ≤ 10 min | Bioavailability (F) (2 mg/kg): 100 % of Dose | AUC at 3 h (4 mg/kg): 1340 ± 140 ng·h/mL | bioavailability (4 mg/kg, Nasal Bioavailability (F)): 53 ± 5.5% | AUC at 3 h (iv, 2 mg/kg): 1260 ± 90 ng·h/mL | AUC at 3 h (po, 20 mg/kg): 1150 ± 240 ng·h/mL | bioavailability (po, 20 mg/kg, Oral Bioavailability (F)): 9.1 ± 1.9%
